{"source": "paper PMC2360547", "about": "(British Journal of Cancer, 2006)", "key": {"[1]": {"design": "method as in Novartis internal report", "settings": "ref Novartis internal report; cited from earlier work"}, "[2]": {"system": "patients with metastatic melanoma", "assay": "Phase IIA clinical trial: safety and toxicity", "assay_type": "in vivo, human", "procedure": "Disease sites were re-evaluated by clinical examination monthly or CT every 2 months, or more frequently if disease progression was suspected.\n(§1) It was planned to recruit 14 patients with disease suitable for biopsy as the first cohort. […] If at least one response occurred, a further 13 patients (not necessarily with disease suited for biopsy) would be recruited. Response and toxicity were assessed using WHO criteria."}, "[3]": {"assay": "Plasma concentrations by HPLC with fluorescence detection", "assay_type": "in vivo, human", "settings": "for concentration at 28 day: human, plasma, oral", "procedure": "(§2) Therefore, the tumour tissue was frozen and cut into as small as possible pieces with a scalpel. The pieces were weighed, added to 1 ml of water, vortexed and thereafter treated like plasma. The assay for plasma samples was validated with acceptable calibration curves, within-study variability and total recovery. […] Due to limited availability of tumour tissue, the within-study validation for tumour assay was not performed."}, "[4]": {"system": "acute myeloid leukaemia (AML)", "design": "method as in Stone et al, 2005", "settings": "ref Stone et al, 2005, cited from earlier work"}, "PKC": {"system": "PKC", "procedure": "Tumour biopsies were immediately frozen in liquid nitrogen and stored at −70°C until analysis. Heparinised blood (10 ml) was collected predose and at day 28.\nTumours were powdered in liquid nitrogen and homogenised on ice using an Ultra-Turrax in a buffer containing 20 mM HEPES, pH 7.4, 2 mM EDTA, 25 mM β-glycerophosphate, 0.2 mM DTT, 10 μg ml^−1 leupeptin, 10 μg ml^−1 aprotinin, 1 μg ml^−1 pepstatin, 1 μM sodium orthovanadate and 0.5 mM PMSF. Extracts were then sonicated in an ice cold sonicating bath for 5 min before centrifugation at 1000 g for 5 min to remove cellular debris. Supernatants were centrifuged at 50 000 g for 15 min to separate cytosolic (supernatant) and particulate (pellet) fractions. The supernatant was kept as ‘cytosolic’ fraction. The pellet was further extracted by resuspension in the original lysis buffer including 1% NP-40. Following sonication for 5 min on ice, the extract was centrifuged at 50 000 g for 15 min. The supernatant from this spin (which derived from the original pellet) was kept as the ‘particulate’ fraction. All steps were performed at 4°C or on ice.\nThe protein concentrations of the cytosolic and particulate fractions were measured after TCA precipitation using the Dc protein assay kit (Bio-Rad).\nIntratumoral total PKC activity was measured in cytosolic and particulate fractions using protamine sulphate as the substrate, following the method of a validated assay ([Budworth and Gescher, 1995]). The PKC assay was performed with 4–5 μl of the cytosol or particulate extract (2–50 μg protein) in a total reaction volume of 200 μl, including 200 μg ml^−1 protamine sulphate, 150 μM (γ-^32P)ATP (200 c.p.m. pmol^−1) in a buffer containing 20 mM Tris-HCl, pH 7.4, 10 mM magnesium acetate and 0.5 mM EGTA. The reaction was terminated after 6–7 min (30°C) by spotting 35 μl of the mix onto P81 phosphocellulose paper, followed by washing in 75 mM phosphoric acid. Bound, phosphorylated protamine sulphate was quantitated by scintillation counting of the phosphocellulose papers. Protein kinase C activity was determined by phosphate incorporation into protamine sulphate and expressed as picomolar of phosphate transferred min mg^−1 protein. Measurements were performed in triplicate. Each patient's pretreatment and day 28 biopsies were processed together and analysed in the same assay run. Up to six patients’ samples could be analysed in one day to minimise interassay variability."}, "[5]": {"assay": "Tumour tissue concentrations by HPLC with fluorescence detection", "assay_type": "in vivo, human", "settings": "for Kp at 28 day / concentration at 28 day: human, oral, 10 subjects; for Kp at 28 day: tumour tissue / plasma, 75 mg three times a day, tumour tissue to plasma; for concentration at 28 day: 75 mg tid", "procedure": "as §2"}, "[6]": {"system": "patients with advanced cancer", "settings": "ref Propper et al, 2001, cited from earlier work"}, "metastatic melanoma": {"system": "metastatic melanoma", "assay": "Phase IIA clinical trial: tumour response, survival, performance status", "assay_type": "in vivo, human", "design": "key to Best response: PD: progressive disease; SD: stable disease (<25% increase overall diameter of any lesion; no new lesions, after at least 4 weeks); NA: not assessable", "source_text": "There was no limit on the amount of prior therapy, but no prior chemotherapy or immunotherapy was permitted in the 4 weeks before study entry. Patients with CNS metastases were eligible. At least the first 14 patients entered were also required to have at least two lesions suitable for excision biopsy (skin, subcutaneous metastases). Written informed consent was obtained from all patients and the protocol was approved by the Human Research Ethics Committees of the participating institutions.\nThis fixed dose schedule was calculated from the Phase I study, in which higher single daily doses were associated with more GIT toxicity.\nPatients were reviewed for safety and efficacy of midostaurin weekly for the first month, and then on a monthly basis, or more frequently where symptoms warranted. Disease sites were re-evaluated by clinical examination monthly or CT every 2 months, or more frequently if disease progression was suspected.\nas §1"}, "PKCα": {"system": "PKCα", "design": "method as in Fabbro et al, 2000", "settings": "ref Fabbro et al, 2000; cited from earlier work"}, "[7]": {"design": "method as in Propper et al, 2001", "settings": "Phase I trial, oral; ref Propper et al, 2001; cited from earlier work"}, "[8]": {"settings": "one patient resistant to midostaurin with abundance of PKCξ"}}, "note": "Several values for one entry are separate records, joined by “and”; a condition that tells them apart may be missing. Equal entries are not always repeated. Entries after “also recorded” stand apart in the source; their conditions may differ. Where two headings read alike, the source gives them in different places."}
{"molecule": "CO[C@@H]1[C@H](N(C)C(=O)c2ccccc2)C[C@H]2O[C@]1(C)n1c3ccccc3c3c4c(c5c6ccccc6n2c5c31)C(=O)NC4", "note": "[Midostaurin, N-benzoyl-staurosporine]", "values": [{"measurement": "Plasma protein binding", "setting": "[1]", "value": 99, "unit": "%"}, {"measurement": "Patients with anaemia", "setting": "[2]; 17 patients", "value": 12, "unit": "patients"}, {"measurement": "Patients with anaemia reaching grade 2", "setting": "[2]; 17 patients", "value": "five"}, {"measurement": "Patients requiring dose modification for nausea or vomiting", "setting": "[2]; 17 patients, 75 mg p.o. t.i.d.", "value": "Two"}, {"measurement": "Patients with hyperglycemia", "setting": "[2]; 17 patients, one of Grade 2 severity", "value": "Four"}, {"measurement": "Patients with elevated liver enzymes (alanine transaminase or aspartate transaminase) possibly linked to therapy", "setting": "[2]; 17 patients, only one reached grade 2", "value": "four"}, {"measurement": "Patients who discontinued owing to nausea, vomiting, diarrhoea and/or fatigue possibly related to study drug", "setting": "[2]; seven out of 17 patients, 75 mg p.o. t.i.d.", "value": 41, "unit": "%"}, {"measurement": "concentration at 28 day", "setting": "[3]; 75 mg three times a day, calculated for median plasma concentration of 2342 nM and 99% protein binding, read-out: Free plasma concentration", "value": 23.4, "unit": "nM"}, {"measurement": "concentration at 28 day", "setting": "[3]; 75 mg tid, 12 subjects, about 1 month of 75 mg tid, read-out: Plasma concentrations, maximum", "value": 4650, "unit": "nM"}, {"measurement": "concentration at 28 day", "setting": "[3]; 75 mg tid, 12 subjects, about 1 month of 75 mg tid, read-out: Plasma concentrations, mean", "value": 2450, "unit": "nM"}, {"measurement": "concentration at 28 day", "setting": "[3]; 75 mg tid, 12 subjects, about 1 month of 75 mg tid, read-out: Plasma concentrations, median", "value": 2340, "unit": "nM"}, {"measurement": "concentration at 28 day", "setting": "[3]; 75 mg tid, 12 subjects, about 1 month of 75 mg tid, read-out: Plasma concentrations, minimum", "value": 771, "unit": "nM"}, {"measurement": "concentration at 28 day", "setting": "[3]; 75 mg tid, 12 subjects, about 1 month of 75 mg tid, read-out: Plasma trough concentrations, range", "value": "771 to 4650", "unit": "nM"}, {"measurement": "Plasma concentrations", "setting": "[3]; individual subjects, sampling day 27-30, midostaurin 75 mg tid", "value": "2614 nM and 1639 nM and 771 nM and 2901 nM and 2226 nM and 2387 nM and 4649 nM and 1765 nM and 1437 nM and 2297 nM and 3549 nM and 3212 nM"}, {"measurement": "Tolerability", "setting": "[4]; 225 mg day−1 in AML", "value": "well-tolerated"}, {"measurement": "AML patients with a 50% reduction in bone marrow blast cells", "setting": "[4]", "value": 25, "unit": "%"}, {"measurement": "AML patients with a 50% reduction of peripheral blood blast cells", "setting": "[4]", "value": 70, "unit": "%"}, {"measurement": "Effect on phosphorylation of protamine sulphate", "setting": "PKC; 10 μM added to melanoma biopsies from nontrial patients", "value": "inhibited phosphorylation"}, {"measurement": "Reduction of cytosolic PKC activity compared to pretreatment biopsy", "setting": "PKC; day 28 tumour biopsy, in seven out of nine patients", "value": "7–91%"}, {"measurement": "Change of cytosolic PKC activity", "setting": "PKC; [8]", "value": "unchanged"}, {"measurement": "Increase in particulate PKC activity", "setting": "PKC; [8]", "value": 65, "unit": "%"}, {"measurement": "Percentage of total PKC activity present in the particulate fraction", "setting": "PKC; patient 10, day 28 (day 0: 19.1%)", "value": 15.4, "unit": "%"}, {"measurement": "Percentage of total PKC activity present in the particulate fraction", "setting": "PKC; patient 11, day 28 (day 0: 15.7%)", "value": 11.1, "unit": "%"}, {"measurement": "Kp at 28 day", "setting": "[5]; read-out: Tissue/plasma ratios, maximum", "value": 1.86}, {"measurement": "Kp at 28 day", "setting": "[5]; read-out: Tissue/plasma ratios, mean", "value": 0.56}, {"measurement": "Kp at 28 day", "setting": "[5]; read-out: Tissue/plasma ratios, median", "value": 0.29}, {"measurement": "Kp at 28 day", "setting": "[5]; read-out: Tissue/plasma ratios, minimum", "value": 0.02}, {"measurement": "concentration at 28 day", "setting": "[5]; tumour tissue, tumour tissue, about 1 month of 75 mg tid, read-out: Tissue concentrations, maximum", "value": 4250, "unit": "nM"}, {"measurement": "concentration at 28 day", "setting": "[5]; tumour tissue, tumour tissue, about 1 month of 75 mg tid, read-out: Tissue concentrations, mean", "value": 1300, "unit": "nM"}, {"measurement": "concentration at 28 day", "setting": "[5]; tumour tissue, tumour tissue, about 1 month of 75 mg tid, read-out: Tissue concentrations, median", "value": 593, "unit": "nM"}, {"measurement": "concentration at 28 day", "setting": "[5]; tumour tissue, tumour tissue, about 1 month of 75 mg tid, read-out: Tissue concentrations, minimum", "value": 58, "unit": "nM"}, {"measurement": "Tissue concentrations", "setting": "[5]; tumour tissue, individual subjects, about 1 month of 75 mg tid", "value": "58 nM and 607 nM and 266 nM and 579 nM and 4142 nM and 550 nM and 1528 nM and 358 nM and 698 nM and 4246 nM"}, {"measurement": "Response in two patients with cholangiocarcinoma", "setting": "[6]; for 4 months on midostaurin", "value": "one had stable disease and one a partial response"}, {"measurement": "MTD", "setting": "[6]; oral, 12.5–300 mg day−1", "value": "not reached"}, {"measurement": "Patients with nausea/vomiting", "setting": "[6]; oral, 225–300 mg day−1 (grade 3 in 3)", "value": "15 out of 16"}, {"measurement": "Patients with grade 2 diarrhoea", "setting": "[6]; oral, 225–300 mg day−1", "value": "six out of 16"}, {"measurement": "Median survival", "setting": "metastatic melanoma; 17 patients, 75 mg p.o. t.i.d.", "value": 43, "unit": "days"}, {"measurement": "Survival, range", "setting": "metastatic melanoma; 17 patients, 75 mg p.o. t.i.d.", "value": "8 to 113", "unit": "days"}, {"measurement": "Tumour response", "setting": "metastatic melanoma; 17 patients, midostaurin 75 mg p.o. t.i.d.", "value": "No tumour responses were seen; also recorded: No patient obtained a tumour response"}, {"measurement": "Patients with no change of ECOG performance status", "setting": "metastatic melanoma; eight patients, on study", "value": 47, "unit": "%"}, {"measurement": "Patients with progressive disease", "setting": "metastatic melanoma; fourteen out of 17 patients, 75 mg p.o. t.i.d.", "value": 82, "unit": "%"}, {"measurement": "Duration of stable disease (best response duration)", "setting": "metastatic melanoma; individual patients with stable disease, midostaurin 75 mg p.o. t.i.d.", "value": "50 days and 85 days"}, {"measurement": "Best response", "setting": "metastatic melanoma; individual patients, midostaurin 75 mg p.o. t.i.d., WHO criteria", "value": "PD and SD (2×)"}, {"measurement": "Patients with worsening of ECOG performance status", "setting": "metastatic melanoma; nine patients, on study", "value": 53, "unit": "%"}, {"measurement": "Patients with stable disease", "setting": "metastatic melanoma; two out of 17 patients, 75 mg p.o. t.i.d.", "value": 12, "unit": "%"}, {"measurement": "IC50", "setting": "PKCα", "value": 22, "unit": "nM"}, {"measurement": "Elimination t1/2, range", "setting": "[7]", "value": "22 to 96", "unit": "h"}, {"measurement": "Estimated median elimination t1/2", "setting": "[7]", "value": 38.4, "unit": "h"}]}
